# According to patent US9095136B2, “2-IODO imidazole-derivatives” (BAYER INTELLECTUAL PROPERTY GMBH, priority 2011, dated 2015):
# Values joined by “and” are separate entries in the source; they are usually repeats but may differ in a detail not shown here. Equal entries are not always repeated.
# Columns and labels:
# [1] = test system: Fusarium nivale (var. majus); assay: Example M: Fusarium nivale (var. majus) test (wheat)/protective; format: in vivo; settings: protective, 500 ppm, evaluation 5 days after inoculation
# Description: (§1) Solvent: 49 parts by weight of N,N-dimethylacetamide Emulsifier: 1 part by weight of alkylaryl polyglycol ether To produce a suitable preparation of active compound, 1 part by weight of active compound is mixed with the stated amounts of solvent and emulsifier, and the concentrate is diluted with water to the desired concentration. To test for protective activity, young plants are sprayed with the preparation of active compound at the stated application rate. After the spray coating has dried on, the plants are sprayed with a spore suspension of Fusarium nivale (var. majus).
# Pyrenophora teres [2] = assay: Example R: preventative in vivo test with Pyrenophora teres (net blotch on barley); settings: 500 ppm, evaluation 12 days after inoculation
# Description: The active compounds tested are prepared by homogenization in a mixture of acetone/Tween/DMSO and then diluted with water to the desired active compound concentration. Barley plants (cultivar “Plaisant”), sown in a 50/50 peat/pozzolana soil substrate and cultivated at 22° C. (12 h)/20° C. (12 h), are treated at the 1-leaf stage (height 10 cm) by spraying with the active compound, prepared as above. As a control, plants are treated with the mixture of acetone/Tween/DMSO/water without the active compound. After 24 hours, the plants are inoculated by spraying the leaves with an aqueous suspension of Pyrenophora teres spores.
# Sphaerotheca fuliginea = assay: Example B: Sphaerotheca test (cucumber)/protective; format: in vivo; settings: protective, 500 ppm, evaluation 7 days after inoculation
# Description: Solvent: 49 parts by weight of N,N-dimethylformamide Emulsifier: 1 part by weight of alkylaryl polyglycol ether To produce a suitable preparation of active compound, 1 part by weight of active compound is mixed with the stated amounts of solvent and emulsifier, and the concentrate is diluted with water to the desired concentration. To test for protective activity, young cucumber plants are sprayed with the preparation of active compound at the stated application rate. 1 day after the treatment, the plants are inoculated with a spore suspension of Sphaerotheca fuliginea. The plants are then placed in a greenhouse at 70% relative air humidity and a temperature of 23° C.
# Puccinia recondita = assay: Example T: preventative in vivo test with Puccinia recondita (brown rust on wheat); settings: 500 ppm, evaluation 10 days after inoculation
# Description: The active compounds tested are prepared by homogenization in a mixture of acetone/Tween/DMSO and then diluted with water to the desired active compound concentration. Wheat plants (cultivar “Scipion”), sown in a 50/50 peat/pozzolana soil substrate and cultivated at 22° C. (12 h)/20° C. (12 h), are treated at the 1-leaf stage (height 10 cm) by spraying with the active compound, prepared as above. As a control, plants are treated with the mixture of acetone/Tween/DMSO/water without the active compound. After 24 hours, the plants are inoculated by spraying the leaves with an aqueous suspension of Puccinia recondita spores.
# Fusarium graminearum = format: in vivo; settings: barley (heading), protective, 500 ppm, evaluation 5 days after inoculation
# Puccinia triticina = assay: Example L: Puccinia triticina test (wheat)/protective; format: in vivo; settings: protective, 500 ppm, evaluation 8 days after inoculation
# Description: as §1, with “sprayed with spores with a spore” for “sprayed with a spore”, “suspension of Puccinia triticina.” for “suspension of Fusarium nivale (var. majus).”
# Uromyces appendiculatus [3] = assay: Example W: preventative in vivo test with Uromyces appendiculatus (bean rust); settings: 500 ppm, evaluation 10 days after inoculation
# Description: The active compounds tested are prepared by homogenization in a mixture of acetone/Tween/DMSO and then diluted with water to the desired active compound concentration. Bean plants (cultivar “Saxa”), sown in a 50/50 peat/pozzolana soil substrate and cultivated at 24° C., are treated at the 2-leaf stage (height 9 cm) by spraying with the active compound, prepared as above. As a control, plants are treated with the mixture of acetone/Tween/DMSO/water without the active compound. After 24 hours, the plants are inoculated by spraying the leaves with an aqueous suspension of Uromyces appendiculatus spores.
# Venturia inaequalis = assay: Example D: Venturia test (apple)/protective; format: in vivo; settings: protective, 100 ppm, evaluation 10 days after inoculation
# Description: (§2) Solvent: 24.5 parts by weight of acetone • 24.5 parts by weight of dimethylacetamide Emulsifier: 1 part by weight of alkylaryl polyglycol ether To produce a suitable preparation of active compound, 1 part by weight of active compound is mixed with the stated amounts of solvent and emulsifier, and the concentrate is diluted with water to the desired concentration. To test for protective activity, young plants are sprayed with the preparation of active compound at the stated application rate. […] The plants are then placed in a greenhouse at about 21° C. and a relative atmospheric humidity of about 90%.
# Leptosphaeria nodorum = assay: Example H: Leptosphaeria nodorum test (wheat)/protective; format: in vivo; settings: protective, 500 ppm, evaluation 8 days after inoculation
# Description: as §1, with “Leptosphaeria nodorum.” for “Fusarium nivale (var. majus).”
# Phytophthora infestans = format: in vivo; settings: tomato, preventative, 500 ppm, evaluation 5 days after inoculation
# Pyrenophora teres [4] = assay: Example K: Pyrenophora teres test (barley)/protective; format: in vivo; settings: protective, 500 ppm, evaluation 8 days after inoculation
# Description: as §1, with “Pyrenophora teres.” for “Fusarium nivale (var. majus).”
# Uromyces appendiculatus [5] = assay: Example E: Uromyces test (bean)/protective; format: in vivo; settings: protective, 10 ppm, evaluation 10 days after inoculation
# Description: as §2, with “Solvents:” for “Solvent:”
structure (smiles),measurement,setting,value
"OC(Cc1ccccc1Cl)(Cn1ccnc1I)C1(Cl)CC1 (stereo not drawn) [Example 1, 2-(1-chlorocyclopropyl)-1-(2-chlorophenyl)-3-(2-iodo-1H-imidazol-1-yl)propan-2-ol]",Eff. %,[1],100%
same,Efficacy %,Pyrenophora teres [2],100%
same,Eff. %,Sphaerotheca fuliginea,80%
same,Efficacy %,Puccinia recondita,100%
same,Eff. %,Fusarium graminearum,100%
same,Eff. %,Puccinia triticina,100%
same,Efficacy %,Uromyces appendiculatus [3],100%
same,Eff. %,Venturia inaequalis,100%
same,Eff. %,Leptosphaeria nodorum,100%
same,Efficacy %,Phytophthora infestans,100%
same,Eff. %,Pyrenophora teres [4],100%
same,Eff. %,Uromyces appendiculatus [5],100% and 88%
